The values that follow are results of earlier work, collected in patent publication US20080038219A1, “Novel Composition for a Topical Skin Treatment Base and Medicated Applications Thereof” (CALGENEX CORPORATION, priority 2006, published 2008).

The series concerns mild-to-moderate acne. The note with it: versus tretinoin 0.05%, benzoyl peroxide 5%, topical erythromycin 2%.

Turning to `O=C(O)CCCCCCCC(=O)O` [azelaic acid], the “efficacy in treatment of mild-to-moderate acne” value is reported as “efficacy comparable”.
